# Data from PMC7794297.
# Values joined by “and” are separate entries in the source; they are usually repeats but may differ in a detail not shown here. Identical values can stand only once. Like-named read-outs stand apart in the source and are kept apart here.
# Columns and labels:
# [1] = NADPH-templated DCL of building blocks 1-4;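 also: values are means ± SD of DCC experiments run in triplicate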
# glucose oxidase (GOx) [2] = molecular target: T1, glucose oxidase (GOx) (Aspergillus niger, UniProt P13006); test: Glucose oxidase-directed DCL of building blocks 1-4; set-up: purchased Sigma Aldrich; unit not given here; details: blank vs GOx template DCL; GOx 57 μM, Secox 5% mol, 24 h
# Description: The equilibration of the DCL was completed after 24 h (Fig. 9) and the oligomers were identified by HPLC-MS (Supplementary Figs. 4–20). The precise composition of the DCL (with and without GOx), was assessed by measuring the relative peak area (RPA). The normalized change of RPA was used to quantify the protein influence in the final DCL showing the amplification of the dimer of compound 4, that is (4)2 (Fig. 9b). Control experiments were set up to verify that the amplification of the dimer was not due to unspecific binding. Firstly the GOx was replaced by the bovine serum albumin (BSA). A stability study of BSA under the DCL conditions was performed using a fluorescence technique confirming the BSA stability in the DCL experiment (Supplementary Fig. 48)[50].
# The DCL was stabilized for 24 h at 6 °C. Then, GOx was removed by ultracentrifugation through an Amicon ultra-filter (100 KDa). HPLC analysis was performed.
# [3] = molecular target: T2, bovine serum albumin (BSA) (Bos taurus, UniProt P02769); test: BSA-directed DCL of building blocks 1-4; set-up: purchased Roche; key to NC of RPA: normalized change of relative peak area (RPA) vs blank DCL; details: blank vs BSA-DCL; BSA 57 µM, Secox 5% mol, 24 h
# [4] = Spermidine-templated DCL of building blocks 1-4;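 also: Spermidine-templated dynamic combinatorial library, normalized change of RPA compared between Secox-free and Secox-containing libraries, DCC runs done in triplicate, values given as mean ± SD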
# [5] = Spermine-templated DCL of building blocks 1-4; details: spermine DCL of 1-4
# Description: (§1) Building blocks 2 and 3 equipped with carboxylate moieties to establish interactions with the protonated amine groups of the spermine were allowed to equilibrate at pH 7.8 and 6 °C (Fig. 8a). As expected in our control experiment, the major component in the absence of spermine was the linear tetramer (2)2(3)2. After the addition of spermine, the linear tetramer “decomposed” in order to form mainly the cyclic tetramer of (2)4, and the (3)2 dimer (Fig. 8a). As it was reported, several studies determined that the spermine was threaded through the macrocycle fixing the configuration to a highly symmetric stereoisomer of (2)4[36]. […] The precise composition of the DCL (with and without spermine), was assessed by measuring the relative peak area (RPA). Indeed, the normalized change of RPA was used to quantify the spermine influence in the outcome (Supplementary Fig. 42)[46]. The same template (spermine) was tested in our reference DCL of four building blocks (1–4) in the absence and presence of Secox (Fig. 8b). […] Additionally, two different templates were tested to confirm the absence of conflict between selenocystine and the templating effect. Spermidine and NADPH were introduced in our 4 building blocks DCL (1–4) in the absence and presence of Secox, leading to the amplification of different species and getting the same results as the non-catalyzed DCLs (Supplementary Figs. 44, 45, Supplementary Tables 7–10, and Supplementary Methods).
# The mixture was stabilized in 96 h. […] The mixture was stabilized after 24 h. […] It was stabilized in 24 h. […] DCL was equilibrated in 96 h. DCLs were performed without stirring at 6 °C and analyzed by HPLC-MS.
# [6] = Spermine-templated DCL of building blocks 2 and 3; details: spermine DCL of 2 and 3
# Description: as §1
# The DCL was stabilized at 96 h. […] The mixture was stabilized after 24 h. […] The DCL was stabilized at 96 h. […] The DCL was analyzed in 96 h after equilibration. DCLs were performed without stirring at 6 °C and analyzed by HPLC-MS.
# [7] = cited from earlier work
# [8] = Equilibration of the thiol-disulfide DCL of building blocks 1-4 followed by HPLC-MS; details: 190 μM as fifth building block; Tris 20 mM pH 7.8, 6 °C; control 4 days
# Description: DMSO percentage is 2.5% v/v. […] DCLs were analyzed by HPLC-MS until equilibration without stirring at 6 °C.
# Control DCL. […] DMSO percentage is 2.5% v/v. Regarding Secox catalyzed DCL, different stocks of Secox were carried out in order to study the percentages of Secox. […] The DCLs were prepared at 6 °C without stirring and analyzed in several hours until the complete stabilization.
# [9] = molecular target: T2, bovine serum albumin (BSA); test: BSA tolerance to DMSO, Trp emission fluorescence
# glucose oxidase (GOx) [10] = molecular target: T1, glucose oxidase (GOx)
# [11] = 10 % v/v DMSO, Supplementary Figure 48 b
# [12] = 20 % v/v DMSO, Supplementary Figure 48 b
# [13] = 60 % v/v DMSO, Supplementary Figure 48 b
# T2 sequence (P02769 25-607): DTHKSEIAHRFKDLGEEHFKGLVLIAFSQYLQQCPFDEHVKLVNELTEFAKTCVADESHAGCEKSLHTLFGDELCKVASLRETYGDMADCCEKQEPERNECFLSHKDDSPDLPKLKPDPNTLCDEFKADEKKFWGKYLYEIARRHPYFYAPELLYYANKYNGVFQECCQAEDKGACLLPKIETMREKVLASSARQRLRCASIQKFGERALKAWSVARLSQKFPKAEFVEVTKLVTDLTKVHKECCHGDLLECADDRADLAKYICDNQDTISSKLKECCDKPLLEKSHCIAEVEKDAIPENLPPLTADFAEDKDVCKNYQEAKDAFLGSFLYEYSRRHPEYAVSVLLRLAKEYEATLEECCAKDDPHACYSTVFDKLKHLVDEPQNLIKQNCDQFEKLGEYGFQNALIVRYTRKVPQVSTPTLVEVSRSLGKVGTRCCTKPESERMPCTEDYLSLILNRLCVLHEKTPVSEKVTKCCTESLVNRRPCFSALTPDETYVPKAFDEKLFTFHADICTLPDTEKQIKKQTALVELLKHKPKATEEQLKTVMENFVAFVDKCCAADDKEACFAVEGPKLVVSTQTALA
# T1 sequence (P13006 17-605): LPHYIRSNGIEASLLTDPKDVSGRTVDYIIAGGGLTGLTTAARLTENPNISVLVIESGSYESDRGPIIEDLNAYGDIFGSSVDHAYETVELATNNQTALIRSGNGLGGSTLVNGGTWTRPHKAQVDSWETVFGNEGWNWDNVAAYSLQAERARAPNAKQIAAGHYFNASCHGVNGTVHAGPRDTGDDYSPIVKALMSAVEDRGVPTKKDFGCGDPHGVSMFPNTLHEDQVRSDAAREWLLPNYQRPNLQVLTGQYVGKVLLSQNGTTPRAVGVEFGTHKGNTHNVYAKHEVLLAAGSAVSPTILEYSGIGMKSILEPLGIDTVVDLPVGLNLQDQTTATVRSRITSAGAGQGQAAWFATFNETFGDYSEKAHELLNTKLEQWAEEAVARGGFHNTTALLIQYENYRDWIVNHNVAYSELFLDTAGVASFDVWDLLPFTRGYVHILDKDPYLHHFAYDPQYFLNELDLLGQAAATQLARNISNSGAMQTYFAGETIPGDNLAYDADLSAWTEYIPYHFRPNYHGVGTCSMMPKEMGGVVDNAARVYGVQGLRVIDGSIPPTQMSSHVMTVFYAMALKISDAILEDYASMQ
compound,measurement,setting,value
O=C(O)c1cc(SSc2ccccc2)c(C(=O)O)cc1SSc1ccccc1 [(2)(4)2],Normalized Change of RPA (NC),[1]; 0% Secox,"-0,16"
same,Normalized Change of RPA (NC),[1]; 5% Secox,"-0,18"
same,NC of RPA,glucose oxidase (GOx) [2],"0,19"
same,NC of RPA,[3],"1,30"
same,Normalized Change of RPA (NC),[4]; 0% Secox,"0,06"
same,Normalized Change of RPA (NC),[4]; 5% Secox,"0,04"
same,Normalized Change of RPA (NC),[5]; 0% Secox,"0,08"
same,Normalized Change of RPA (NC),[5]; 5% Secox,"0,08"
"O=C(O)c1cccc(SSc2cccc(C(=O)O)c2)c1 [(3)2, 3,3'-disulfanediyldibenzoic acid]",Normalized Change of RPA (NC),[6]; Secox,0.1
same,Normalized Change of RPA (NC),[6]; no Secox,0.1
same,Normalized Change of RPA (NC),[1]; 0% Secox,"0,56"
same,Normalized Change of RPA (NC),[1]; 5% Secox,"0,49"
same,NC of RPA,glucose oxidase (GOx) [2],"-0,35"
same,NC of RPA,[3],"-0,64"
same,Normalized Change of RPA (NC),[4]; 0% Secox,"0,51"
same,Normalized Change of RPA (NC),[4]; 5% Secox,"0,51"
same,Normalized Change of RPA (NC),[5]; 0% Secox,"0,49"
same,Normalized Change of RPA (NC),[5]; 5% Secox,"0,49"
O=C(O)c1cccc(SSc2cc(SSc3ccccc3)cc(C(=O)O)c2)c1 [(3)(1)(4)],Normalized Change of RPA (NC),[1]; 0% Secox,"-0,82"
same,Normalized Change of RPA (NC),[1]; 5% Secox,"-0,76"
same,NC of RPA,glucose oxidase (GOx) [2],"0,54"
same,NC of RPA,[3],"2,28"
same,Normalized Change of RPA (NC),[4]; 0% Secox,"-1,00"
same,Normalized Change of RPA (NC),[4]; 5% Secox,"-1,00"
same,Normalized Change of RPA (NC),[5]; 0% Secox,"-0,51"
same,Normalized Change of RPA (NC),[5]; 5% Secox,"-0,51"
"N[C@@H](CS)C(=O)O [Cys, cysteine]",pKa,[7]; Cys thiol group,8.22 and ~ 8.22
"N[C@@H](CSSC[C@H](N)C(=O)O)C(=O)O [Cysox, cystine]",DCL equilibration time,[8],3 days
C[S+](C)[O-] [DMSO],DMSO concentration tolerated by BSA,[9],up to 10%
same,time until total completion of homodimerization,20% (v/v),4 days
same,Kobs,"20% (v/v) DMSO, 0% Secox, 190 μM 3, Tris pH 7.8, 6 °C",0.068 ± 0.001 M⁻¹ s⁻¹
same,DMSO concentration tolerated by GOx (no shift of Trp emission maximum),glucose oxidase (GOx) [10],up to 20%
same,Fluorescence Emission (Average Value),glucose oxidase (GOx) [10]; 1 % v/v DMSO,4921084
same,Wavelenght (nm) of Trp emission maximum,glucose oxidase (GOx) [10]; 1 % v/v DMSO,329 nm
same,Fluorescence Emission (Average Value),glucose oxidase (GOx) [10]; 2.5 % v/v DMSO,5438068
same,Wavelenght (nm) of Trp emission maximum,glucose oxidase (GOx) [10]; 2.5 % v/v DMSO,329 nm
same,Wavelenght (nm) of Trp emission maximum,"glucose oxidase (GOx) [10]; 2.5 % v/v DMSO, Supplementary Figure 48 b",338 nm
same,Fluorescence Emission (Average Value),glucose oxidase (GOx) [10]; 5 % v/v DMSO,4507601
same,Wavelenght (nm) of Trp emission maximum,glucose oxidase (GOx) [10]; 5 % v/v DMSO,329 nm
same,Wavelenght (nm) of Trp emission maximum,"glucose oxidase (GOx) [10]; 5 % v/v DMSO, Supplementary Figure 48 b",337 nm
same,Fluorescence Emission (Average Value),glucose oxidase (GOx) [10]; 7.5 % v/v DMSO,4900904
same,Wavelenght (nm) of Trp emission maximum,glucose oxidase (GOx) [10]; 7.5 % v/v DMSO,329 nm
same,Fluorescence Emission (Average Value),glucose oxidase (GOx) [10]; 10 % v/v DMSO,4964780
same,Wavelenght (nm) of Trp emission maximum,glucose oxidase (GOx) [10]; 10 % v/v DMSO,329 nm
same,Fluorescence Emission (at maximum),glucose oxidase (GOx) [10]; [11],7117020
same,Wavelenght (nm) of Trp emission maximum,glucose oxidase (GOx) [10]; [11],336 nm
same,Fluorescence Emission (Average Value),glucose oxidase (GOx) [10]; 20 % v/v DMSO,5321027
same,Wavelenght (nm) of Trp emission maximum,glucose oxidase (GOx) [10]; 20 % v/v DMSO,329 nm
same,Fluorescence Emission (at maximum),glucose oxidase (GOx) [10]; [12],7139475
same,Wavelenght (nm) of Trp emission maximum,glucose oxidase (GOx) [10]; [12],335 nm
same,Fluorescence Emission (Average Value),glucose oxidase (GOx) [10]; 40 % v/v DMSO,6356217
same,Wavelenght (nm) of Trp emission maximum,glucose oxidase (GOx) [10]; 40 % v/v DMSO,336 nm
same,Fluorescence Emission (Average Value),glucose oxidase (GOx) [10]; 50 % v/v DMSO,10423932
same,Wavelenght (nm) of Trp emission maximum,glucose oxidase (GOx) [10]; 50 % v/v DMSO,337 nm
same,Fluorescence Emission (Average Value),glucose oxidase (GOx) [10]; 60 % v/v DMSO,13490702
same,Wavelenght (nm) of Trp emission maximum,glucose oxidase (GOx) [10]; 60 % v/v DMSO,338 nm
same,Fluorescence Emission (at maximum),glucose oxidase (GOx) [10]; [13],8900408
same,Wavelenght (nm) of Trp emission maximum,glucose oxidase (GOx) [10]; [13],327 nm
same,Fluorescence Emission (Average Value),glucose oxidase (GOx) [10]; 70 % v/v DMSO,30698968
same,Wavelenght (nm) of Trp emission maximum,glucose oxidase (GOx) [10]; 70 % v/v DMSO,339 nm
same,Fluorescence Emission (Average Value),glucose oxidase (GOx) [10]; 80 % v/v DMSO,28715570
same,Wavelenght (nm) of Trp emission maximum,glucose oxidase (GOx) [10]; 80 % v/v DMSO,344 nm
same,Wavelenght (nm) of Trp emission maximum,glucose oxidase (GOx) [10]; 97 % v/v DMSO,349 nm
same,Fluorescence Emission (at maximum),"glucose oxidase (GOx) [10]; 97 % v/v DMSO, Supplementary Figure 48 b",24089455
"N[C@@H](C[SeH])C(=O)O [Sec, selenocysteine]",pKa,[7]; Sec,5.43 and ~ 5.43
